The record followed here is patent US5770604A, “Aconitine compound and an antipyretic/analgesic/anti-inflammatory agent” (priority 1994, dated 1998).

The structures appear in SMILES notation.

For experiment [1], the system named is nociceptive response (licking). The experiment is described as follows: Analgesic activity by the hot-plate method. Format: in vivo, mice (Std:ddY, male). The settings on record: mouse, 52° C. plate, solution 10 mg/10 ml, mean ± standard error. Here is the method: Measurement of Analgesic Activity by the Hot-Plate Method
Std:ddY Strain male mice (20-25 g) were fasted for one day before the experiment, and were used. After compounds shown in Table 1 were formed to the tartaric acid salts, these compounds were dissolved in 0.9% physiologocal saline solution at the rate of 10 mg/10 ml, respectively and these solution were used as test compound solution. In a control, 0.9% physiological saline solution was used. Mice were placed on a cyrindric hot plate (diameter: 22 cm, height: 11 cm) made of copper which was fixed in a water bath adjusted to 52° C. so that each animal's four paws came into contact with the plate and the time taken to show the nociceptive response (licking) as an index of pain was measured. Mice showing response latency above 25 seconds were excluded from the experiment. To prevent a burn damage of mouse tissue by heating, cutoff time of 50 seconds was defined. The results were described as an inhibition rate (%) obtained from the following equation.
Inhibition rate (%)=(A-B)×100/(50-B)
A: Response latency (seconds) after the administration of test compound solution
B: Response latency (seconds) before the administration of test compound solution
Background: In hot-plate and tail-flick tests a longer latency is read as antinociception.

A further experiment relates to yeast-induced fever. The experiment is described as follows: Antipyretic activity on yeast-induced fever in rats. The experiment is classed as in vivo, rats (Wistar, male). As to conditions: rat, 2 hours after administration. Here is the method: Measurement of Antipyretic Activity on Yeast-Induced Fever in Rats
Wistar Strain male rats (150-190 g) were fasted for one day before the experiment, and were used. Compounds of number (1) and (2) in Table 1 were formed to the tartaric acid salt and these salts were dissolved in 0.9% physiological saline solution at the rate of 10 mg/10 ml and these solution were used as test compound solution. In a control, 0.9% physiological saline solution was used. After rat rectal temperature was measured, 1 ml/100 g of body weight of 7.5% yeast/0.9% physiological saline solution was injected s.c. at dorsal position. Then, rat rectal temperature was measured at 4 hour after the injection of yeast and rats showing the increase rectal temperature by 1 degree or more were selected and used. Test compound solution was administered s.c. at 5 hours after the injection of yeast. The rectal temperature was measured 2 hours after the administration of test compound solution. The results were described with the difference between the rectal temperature before and after the administration of test compound solution.

The subject of experiment [2] is pain threshold (tail-pressure). The experiment is described as follows: Tail-pressure method, experiment combined with morphine administration. The experiment is classed as in vivo, mice (Std:ddY, male). The settings on record: for Inhibition rate: mean ± standard error, n = 7. Here is the method:
(3) Experiment Combined with Morphine Administration
Std:ddY Strain male mice (20-25 g) were fasted for one day before the experiment, and were used. In this experiment, the tartaric acid salt of a compound of number (2) in Table 1 and morphine hydrochloride were used. The tartaric acid salt of a compound of number (2) was dissolved in 0.9% physiological saline solution at the rate of 7 mg/10 ml. Morphine hydrochloride was dissolved in 0.9% physiological saline solution at the rates of 5 mg/2 ml, 3 mg/2 ml and 1 mg/2 ml. As a control, 0.9% phisiological saline solution was used. A tail-pressure apparatus was used in this experiments. Before the administration of test compounds, the pain threshold was measured twice at intervals of 30 minutes and those mice indicating a pain threshold of 50 to 100 mmHg were selected and used. Mice was divided in the following four groups, (i) control group, (ii) the administration group of the tartaric acid salt of a compound of number (2), (iii) the administration group of morphine hydrochloride and (iv) the combined administration group with the tartaric acid salt of a compound of number (2) and morphine hydrochloride. In the administration group of the tartaric acid salt of a compound of number (2), 0.9% physiological saline solution of this tartaric acid salt mentioned above was injected s.c. at the rate of 10 ml/kg and, 30 minutes later, 0.9% physiological saline solution was injected i.v. at the rate of 2 ml/kg. In the administration group of morphine hydrochloride, 0.9% physiological saline solution was injected s.c. at the rate of 10 ml/kg and, 30 minutes later, the above physiological saline solution of morphine hydrochloride was injected i.v. at the rate of 2 ml/kg. In the combined administration group with the tartaric acid salt of a compound of number (2) and morphine hydrochloride,the above physiological saline solution of the tartaric acid salt of a compound of number (2) was injected s.c. at the rate of 10 ml/kg and, 30 minutes later, the above physiological saline solution of morphine hydrochloride was injected i.v. at the rate of 2 ml/kg. In control group, 0.9% physiological saline solution was injected s.c. at the rate of 10 ml/kg and, 30 minutes later, 0.9% physiological saline solution was injected i.v. at the rate of 2 ml/kg. Each pain threshold was measured 10, 20 and 30 minutes after an intravenous injection. The results were described in Table 9 as an inhibition rate (%) indicating in the preceding paragraph (1).

As for `CCN1CC2(COC)C(O)CC(OC)C34C5CC6(O)C(OC)C(OC(C)=O)C(O)(C5C6OC(=O)c5ccc(Cl)cc5)C(C(OC)C23)C14` (centres unmarked) [(2), 15-O-acetyl-14-O-p-chlorobenzoylaconine], the “Inhibition rate (hot-plate method)” value in experiment [1] was 76 ± 11%. Also, the “Change of rectal temperature” value with yeast-induced fever (1 mg/kg s.c.) turned out to be 1.5 ± 0.2 °C; in the experiment on yeast-induced fever (3 mg/kg s.c.) it was 0.5 ± 0.2 °C; in the experiment on yeast-induced fever (10 mg/kg s.c.), 0.3 ± 0.1 °C. The Inhibition rate in experiment [2] (compound (2) 7 mg/kg s.c. alone (morphine 0), 10 min after i.v. injection) was found to be 30 ± 11%; in experiment [2] (compound (2) 7 mg/kg s.c. alone (morphine 0), 20 min after i.v. injection) it was 35 ± 12%; in experiment [2] (compound (2) 7 mg/kg s.c. alone (morphine 0), 30 min after i.v. injection) it was 37 ± 11%; in experiment [2] (compound (2) 7 mg/kg s.c. combined with morphine 1 mg/kg i.v., 10 min), 31 ± 12%; in experiment [2] (compound (2) 7 mg/kg s.c. combined with morphine 1 mg/kg i.v., 20 min), 36 ± 10%; in experiment [2] (compound (2) 7 mg/kg s.c. combined with morphine 1 mg/kg i.v., 30 min), 32 ± 7%. Further, the Inhibition rate in experiment [2] (compound (2) 7 mg/kg s.c. combined with morphine 3 mg/kg i.v., 10 min) was 47 ± 8%; in experiment [2] (compound (2) 7 mg/kg s.c. combined with morphine 3 mg/kg i.v., 20 min), 50 ± 9%; in experiment [2] (compound (2) 7 mg/kg s.c. combined with morphine 3 mg/kg i.v., 30 min) it was 38 ± 12%; in experiment [2] (compound (2) 7 mg/kg s.c. combined with morphine 5 mg/kg i.v., 10 min), 73 ± 13%; in experiment [2] (compound (2) 7 mg/kg s.c. combined with morphine 5 mg/kg i.v., 20 min), 77 ± 9%; in experiment [2] (compound (2) 7 mg/kg s.c. combined with morphine 5 mg/kg i.v., 30 min), 78 ± 9%. Also, the “effect on the analgesic effect of morphine, in words” value in experiment [2] (mouse, compound s.c., morphine i.v.) is “greatly potentiated the analgesic effect of morphine”.
